Results: patent publication US6924302B2, “Substituted triazole diamine derivatives as kinase inhibitors” (Ortho McNeil Pharmaceutical, Inc., priority 2000, dated 2005)
Read-outs that look alike come from different tables or passages of the source.

Key:
[1] = test system: PC-3 prostate adenocarcinoma; assay: Inhibition of Cell Proliferation (14C-thymidine incorporation), PC-3; type: cell-based; conditions: Homo sapiens, PC-3 cell line
Method: The ability of a test compound to inhibit the proliferation of cell growth was determined by measuring incorporation of ^14C-labelled thymidine into newly synthesized DNA within the cells. This method was used on cell lines derived from carcinomas originating from several tissues such as HeLa cervical adenocarcinoma (American Type Culture Collection (ATCC), Virginia, Cat. #CCL-2), A375 malignant melanoma (ATCC CRL-1619), SK-OV-3 ovarian adenocarcinoma (ATCC HTB-77) HCT-116 colon carcinoma (CCL-247), PC-3 prostate adenocarcinoma (ATCC CRL-1435), and MDA-MB-231 (Xenogen Corp.) In this way the effect of a compound on cell growth of cells with many different phenotypes can be determined. Cells were trypsinized and counted and 3000-8000 cells were added to each well of a 96-well CytoStar tissue culture treated scintillating microplate (Amersham #RPNQ0160) in complete medium in a volume of 100 μl. Cells were incubated for 24 hours in complete medium at 37° C. in an atmosphere containing 5% CO2. Next, 1 μl of test compound in 100% DMSO was added to the wells of the plate. DMSO only was added to control wells. Cells were incubated for 24 more hours in complete medium at 37° C. in an atmosphere containing 5% CO2. Methyl ^14C-thymidine 56 mCi/mmol (NEN #NEC568 or Amersham #CFA532) was diluted in complete medium and 0.2 uCi/well was added to each well of the CytoStar plate in a volume of 20 μl. The plate was incubated for 24 hours at 37° C. plus 5% CO2 in drug plus ^14C-thymidine. The contents of the plate were discarded into a ^14C radioactive waste container by inverting the plate and the plate was washed twice with 200 μl PBS. 200 μl of PBS is added to each well. The top of the plate was sealed with a transparent plate sealer and a white plate backing sealer (Packard #6005199) was applied to the bottom of the plate. The degree of methyl ^14C-thymidine incorporation was quantified on a Packard Top Count.

[2] = biological target: T1, VEGF-R (vascular endothelial growth factor receptor-2) (Rattus norvegicus, UniProt O08775); assay: VEGF-R Screening Assay; type: biochemical; conditions: read-out: VEGF-R IC50
T1 construct: polyhistidine (6xHIS) (N)
T1 sequence (O08775 786-1343): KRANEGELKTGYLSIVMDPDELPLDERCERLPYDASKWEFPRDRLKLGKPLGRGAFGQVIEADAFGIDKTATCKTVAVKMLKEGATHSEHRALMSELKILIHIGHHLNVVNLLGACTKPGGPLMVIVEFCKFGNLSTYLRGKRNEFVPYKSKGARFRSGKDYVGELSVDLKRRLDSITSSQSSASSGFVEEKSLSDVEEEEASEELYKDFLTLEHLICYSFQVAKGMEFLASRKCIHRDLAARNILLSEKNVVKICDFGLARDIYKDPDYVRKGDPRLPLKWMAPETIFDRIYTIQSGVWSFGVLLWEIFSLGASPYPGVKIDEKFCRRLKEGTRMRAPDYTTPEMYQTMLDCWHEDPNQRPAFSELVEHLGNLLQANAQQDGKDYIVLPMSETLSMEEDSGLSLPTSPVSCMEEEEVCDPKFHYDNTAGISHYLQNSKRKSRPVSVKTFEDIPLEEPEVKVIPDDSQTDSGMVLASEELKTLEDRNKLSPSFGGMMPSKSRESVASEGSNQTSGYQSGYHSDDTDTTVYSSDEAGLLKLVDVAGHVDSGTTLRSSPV

FGF-R2 = FGF-R2 (Homo sapiens, UniProt P21802); assay: Kinase Selectivity Assay FGF-R2; type: biochemical; conditions: Tables 2a-2k
Sequence of FGF-R2 (P21802 22-821, species assumed): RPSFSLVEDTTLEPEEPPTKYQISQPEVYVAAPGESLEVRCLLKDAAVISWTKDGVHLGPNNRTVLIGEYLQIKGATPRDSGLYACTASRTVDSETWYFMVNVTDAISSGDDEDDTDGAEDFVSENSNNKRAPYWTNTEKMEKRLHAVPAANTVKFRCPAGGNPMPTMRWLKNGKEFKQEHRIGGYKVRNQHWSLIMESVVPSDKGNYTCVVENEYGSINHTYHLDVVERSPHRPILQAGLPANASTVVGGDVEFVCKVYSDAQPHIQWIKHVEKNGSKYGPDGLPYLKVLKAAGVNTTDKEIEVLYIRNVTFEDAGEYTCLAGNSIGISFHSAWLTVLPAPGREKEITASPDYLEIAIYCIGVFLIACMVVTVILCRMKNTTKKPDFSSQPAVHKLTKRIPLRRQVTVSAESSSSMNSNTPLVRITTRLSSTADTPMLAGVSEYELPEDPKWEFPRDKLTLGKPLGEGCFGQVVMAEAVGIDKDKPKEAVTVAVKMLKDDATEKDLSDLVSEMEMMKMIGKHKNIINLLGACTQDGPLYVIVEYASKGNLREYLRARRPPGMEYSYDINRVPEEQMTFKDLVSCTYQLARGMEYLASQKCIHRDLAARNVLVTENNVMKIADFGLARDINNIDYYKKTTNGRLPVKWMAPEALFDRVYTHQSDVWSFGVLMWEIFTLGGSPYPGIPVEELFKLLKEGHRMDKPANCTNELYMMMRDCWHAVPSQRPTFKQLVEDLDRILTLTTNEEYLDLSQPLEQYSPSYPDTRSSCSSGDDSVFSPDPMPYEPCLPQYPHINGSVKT
Method: Assays to test compound inhibition of other kinases were preformed using methods that measure the amount of phosphorylation of a biotinylated peptide substrate. Biotinylated peptide substrates were selected from the literature as appropriate for the enzyme being evaluated. […] Assay conditions vary slightly for each protein kinase, for example, insulin receptor kinase requires 10 mM MnCl2 for activity and Calmodulin-dependent protein kinase requires calmodulin and 10 mM CaCl2. These assay conditions are known in the art. The reaction mixture was dispensed into the wells of a streptavidin coated Flashplate and 1 μl drug stock in 100% DMSO was added to a 100 μl reaction volume resulting in a final concentration of 1% DMSO on the reaction. Enzyme was diluted in 50 mM Tris-HCl pH=8.0, 0.1% BSA and add to each well. The reaction was incubated for one hour at 30° C. in the presence of compound. After one hour the reaction mix was aspirated from the plate and the plate was washed with PBS containing 100 mM EDTA. The plate was read on a scintillation counter to determine ^33P-γ-ATP incorporated into the immobilized peptide. Test compounds were assayed in duplicate at 8 concentrations [100 uM, 10 uM, 1 uM, 100 nM, 10 nM, 1 nM, 100 pM, 10 pM]. A maximum and minimum signal for the assay was determined on each plate. The IC50 was calculated from the dose response curve of the percent inhibition of the maximum signal in the assay according to the formula [max signal—background/test compound signal—background (100)=% inhibition] by graphing the percent inhibition against the log concentration of test compound. Known inhibitor compounds appropriate for the kinase being assayed were also included on each plate.

[3] = biological target: T2, CDK2 in complex with cyclin A (Homo sapiens, UniProt P24941); assay: Kinase Selectivity Assay CDK2; type: biochemical; conditions: Table 1
T2 construct: purchased Upstate Biotech
Method in brief: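 Inhibition was measured as reduced ^33P-γ-ATP labelling of a biotinylated peptide substrate immobilized on streptavidin plates after one hour at 30° C.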

[4] = test system: SK-OV-3 ovarian adenocarcinoma; assay: Inhibition of Cell Proliferation (14C-thymidine incorporation), SK-OV-3; type: cell-based; conditions: Homo sapiens, SK-OV-3 cell line
Method: The ability of a test compound to inhibit the proliferation of cell growth was determined by measuring incorporation of ^14C-labelled thymidine into newly synthesized DNA within the cells. […] Cells were trypsinized and counted and 3000-8000 cells were added to each well of a 96-well CytoStar tissue culture treated scintillating microplate (Amersham #RPNQ0160) in complete medium in a volume of 100 μl. Cells were incubated for 24 hours in complete medium at 37° C. in an atmosphere containing 5% CO2. Next, 1 μl of test compound in 100% DMSO was added to the wells of the plate. DMSO only was added to control wells. Cells were incubated for 24 more hours in complete medium at 37° C. in an atmosphere containing 5% CO2. […] The plate was incubated for 24 hours at 37° C. plus 5% CO2 in drug plus ^14C-thymidine. The contents of the plate were discarded into a ^14C radioactive waste container by inverting the plate and the plate was washed twice with 200 μl PBS. 200 μl of PBS is added to each well. […] The degree of methyl ^14C-thymidine incorporation was quantified on a Packard Top Count.

[5] = Kinase Selectivity, Tables 2a-2k

Structure (SMILES) | IC50 [1] | IC50 [2, 5] | IC50 ([2]; Table 1) | IC50 (FGF-R2) | IC50 [3] | IC50 [4]
Nc1nc(Nc2ccc(S(N)(=O)=O)cc2)nn1C(=O)C1CCCCC1 [Cpd 39, 4-[[5-amino-1-(cyclohexylcarbonyl)-1H-1,2,4-triazol-3-yl]amino]-benzenesulfonamide] | 625 nM |  |  |  |  | 
CN1CCN(c2ccc(Nc3nc(N)n(C(=O)c4c(F)cccc4F)n3)cc2)CC1 [Cpd 71, 1-(2,6-difluorobenzoyl)-N^3-[4-(4-methyl-1-piperazinyl)phenyl]-1H-1,2,4-triazole-3,5-diamine] | 25 nM | 430 nM | 430 nM | 441 nM |  | 
Cc1nc(C)c(C(=O)n2nc(Nc3ccc(S(N)(=O)=O)cc3)nc2N)s1 [Cpd 34, 4-[[5-amino-1-[(2,4-dimethyl-5-thiazolyl)carbonyl]-1H-1,2,4-triazol-3-yl]amino]-benzenesulfonamide] | 626 nM |  |  |  |  | 
Nc1nc(Nc2ccc(N3CCCS3(=O)=O)cc2)nn1C(=O)c1c(F)cccc1F [Cpd 117] |  | 908 nM | 908 nM |  | 7 nM | 
Nc1nc(Nc2ccc(S(=O)(=O)N3CCCCC3)cc2)nn1C(=O)c1cccs1 [Cpd 23, N^3-[4-(1-piperidinylsulfonyl)phenyl]-1-(2-thienylcarbonyl)-1H-1,2,4-triazole-3,5-diamine] | 859 nM | 35 nM | 35.3 nM |  |  | 1420 nM
CCc1ccc(C(=O)n2nc(Nc3ccc(S(=O)(=O)NCCN(C)C)cc3)nc2N)s1 [Cpd 103, 4-[[5-amino-1-[(5-ethyl-2-thienyl)carbonyl]-1H-1,2,4-triazol-3-yl]amino]-N-[2-(dimethylamino)ethyl]-benzenesulfonamide] |  | 45 nM | 44.9 nM | 170 nM | 1 nM | 
Nc1nc(Nc2ccc(S(N)(=O)=O)cc2)nn1C(=O)c1c(F)cccc1Cl [Cpd 70, 4-[[5-amino-1-(2-chloro-6-fluorobenzoyl)-1H-1,2,4-triazol-3-yl]amino]-benzenesulfonamide] | 11 nM |  |  | 273 nM |  | 
Cc1ccc(F)c(C(=O)n2nc(Nc3ccc(S(N)(=O)=O)cc3)nc2N)c1Cl [Cpd 69, 4-[[5-amino-1-(2-chloro-6-fluoro-3-methylbenzoyl)-1H-1,2,4-triazol-3-yl]amino]-benzenesulfonamide] | 8 nM |  |  | 365 nM |  | 
Nc1nc(Nc2ccc(S(N)(=O)=O)cc2)nn1C(=O)c1sccc1Cl [Cpd 17, 4-[[5-amino-1-[(3-chloro-2-thienyl)carbonyl]-1H-1,2,4-triazol-3-yl]amino]-benzenesulfonamide] | 294 nM | 27 nM | 27 nM |  |  | 3900 nM
CC(O)c1ccc(F)c(C(=O)n2nc(Nc3ccc(S(N)(=O)=O)cc3)nc2N)c1F (centres unmarked) [Cpd 58, 4-[[5-amino-1-[2,6-difluoro-3-(1-hydroxyethyl)benzoyl]-1H-1,2,4-triazol-3-yl]amino]-benzenesulfonamide] | 362 nM | 419 nM | 420 nM | 96 nM |  | 
Nc1nc(Nc2ccc(S(=O)(=O)Nc3ccccn3)cc2)nn1C(=O)c1c(F)cccc1F [Cpd 118, 4-[[5-amino-1-(2,6-difluorobenzoyl)-1H-1,2,4-triazol-3-yl]amino]-N-(2-pyridinyl)-benzenesulfonamide] |  | 397 nM | 397 nM |  | 21 nM | 
Cc1cc(C)c(C(=O)n2nc(Nc3ccc(NS(C)(=O)=O)cc3)nc2N)s1 [Cpd 108, N-[4-[[5-amino-1-[(3,5-dimethyl-2-thienyl)carbonyl]-1H-1,2,4-triazol-3-5 yl]amino]phenyl]-methanesulfonamide] |  | 30 nM | 30.7 nM | 307 nM | 12 nM | 
Nc1nc(Nc2ccc(S(N)(=O)=O)cc2)nn1C(=O)C1CCCC1 [Cpd 38, 4-[[5-amino-1-(cyclopentylcarbonyl)-1H-1,2,4-triazol-3-yl]amino]-benzenesulfonamide] | 2750 nM |  |  |  |  | 
Cc1cc(C)c(C(=O)n2nc(Nc3ccc(S(=O)(=O)Nc4ccccn4)cc3)nc2N)s1 [Cpd 120] |  | 82 nM | 82 nM |  | 9 nM | 
Nc1nc(Nc2ccc(S(N)(=O)=O)cc2)nn1C(=O)c1sccc1Br [Cpd 35, 4-[[5-amino-1-[(3-bromo-2-thienyl)carbonyl]-1H-1,2,4-triazol-3-yl]amino]-benzenesulfonamide] | 231 nM |  | 46.3 nM |  |  | 
CCc1ccc(C(=O)n2nc(Nc3ccc(S(N)(=O)=O)cc3)nc2N)s1 [Cpd 32, 4-[[5-amino-1-[(5-ethyl-2-thienyl)carbonyl]-1H-1,2,4-triazol-3-yl]amino]-benzenesulfonamide] | 30 nM | 22 nM | 21.9 nM |  |  | 
Nc1nc(Nc2ccc(S(N)(=O)=O)cc2)nn1C(=O)c1c(F)cccc1F [Cpd 1, 4-[[5-amino-1-(2,6-difluorobenzoyl)-1H-1,2,4-triazol-3-yl]amino]-benzenesulfonamide] | 119 nM |  |  |  |  | 750 nM
Cc1ccsc1C(=O)n1nc(Nc2ccc(N3CCNC3=O)cc2)nc1N [Cpd 113, 1-[4-[[5-amino-1-[(3-methyl-2-thienyl)carbonyl]-1H-1,2,4-triazol-3-yl]amino]phenyl]-2-imidazolidinone] |  | 30 nM | 30.2 nM |  |  | 281 nM
Cc1ccc(F)c(C(=O)n2nc(N)nc2Nc2ccc(S(N)(=O)=O)cc2)c1F [Cpd 123, 4-[[3-amino-1-(2,6-difluoro-3-methylbenzoyl)-1H-1,2,4-triazol-5-yl]amino]-benzenesulfonamide] |  |  |  |  | 31 nM | 
Cc1ccsc1C(=O)n1nc(Nc2ccc(S(=O)(=O)NCCN(C)C)cc2)nc1N [Cpd 104, 4-[[5-amino-1-[(3-methyl-2-thienyl)carbonyl]-1H-1,2,4-triazol-3-yl]amino]-N-[2-(dimethylamino)ethyl]-benzenesulfonamide] |  |  |  | 200 nM | 1 nM | 
CC(C)(C)c1ccc(C(=O)n2nc(Nc3ccc(S(N)(=O)=O)cc3)nc2N)s1 [Cpd 51, 4-[[5-amino-1-[[5-(1,1-dimethylethyl)-2-thienyl]carbonyl]-1H-1,2,4-triazol-3-yl]amino]-benzenesulfonamide] | 57 nM | 19 nM | 19 nM |  |  | 
Cc1ccsc1C(=O)n1nc(Nc2ccc(N3CCCS3(=O)=O)cc2)nc1N [Cpd 116, N^3-[4-(1,1-dioxido-2-isothiazolidinyl)phenyl]-1-[(3-methyl-2-thienyl)carbonyl]-1H-1,2,4-triazole-3,5-diamine] |  | 26 nM | 26.1 nM |  | 1 nM | 
